Structures can show the parent of a compound that is named as a salt.
Test system: A549 human non-small-cell lung carcinoma cells
Test: In vivo efficacy, A549 xenograft tumor volume
Set-up: species or system mice
Details: for pairwise comparison of log tumor volume AUC with the combination group / statistical difference (p) of log tumor volume AUC from the vehicle: 2-way ANOVA; for Tumor volume Mean: oral once daily, 2.5 mg/kg p70 S6 kinase inhibitor and/or 20 mg/kg erlotinib hydrochloride, in mm^3 (unit assumed); for Signif. (difference relative to vehicle group): tumor volume, repeated measures ANOVA; for log tumor volume AUC: tumor volume vs. time, trapezoid rule, vehicle 3.91
Procedure: A549 human non-small-cell lung carcinoma cells (5×10^6) are subcutaneously implanted into the flank of female C.B-17 (Fox Chase SCID) Model #CB17SC-M mice in 0.2 mL of matrigel. Approximately 1 week post-implantation when the tumor size is approximately 100 mg, mice are randomized into groups of 10 and dosed orally once daily at 2.5 mg/kg 4-[4-[4-(4-fluoro-3-trifluoromethyl-phenyl)-1-methyl-1H-imidazol-2-yl]-piperidin-1-yl]-1H-pyrazolo[3,4-d]pyrimidine (the p70 S6 kinase inhibitor; formulated in 35% PEG300/10% HPBCD/10% PS80 in H2O; concentration of inhibitor is 0.31 mg/mL) or 20 mg/kg erlotinib hydrochloride (formulated in NaCMC Tween 80; concentration of erlotinib hydrochloride is 2.5 mg/mL) or in combination (2.5 mg/kg of the p70 S6 kinase inhibitor and 20 mg/kg of erlotinib hydrochloride). The vehicle group is given the 2 vehicles (NaCMC Tween 80 and 35% PEG300/10% HPBCD/10% PS80 in H2O) in combination (0.1 mL of each). Treatment is continued for 38 days. Tumor volumes are measured using standard technique twice weekly and reported. Tumor size and body weight are recorded and analyzed bi-weekly. Tumor volume is estimated by using the formula: v=l×w^2×0.536 where l=larger of measured diameter and w=smaller of perpendicular diameter. The analysis uses SAS software version 8.2 (SAS Institutes Inc, Cary, N.C.) to analyze the log tumor volume data using a repeated measures ANOVA model with a spatial power covariance structure. For each time point taken, treatment groups are compared to the vehicle control group. Tumor volumes are given as means±standard errors for each treatment group determined from a repeated measures ANOVA on each group. (SAS for Mixed Models, 2nd Ed., Littell et al., 2006, SAS Institutes Inc, Cary, N.C.).
The tumor volume vs. time data for each animal is used to calculate an area under the curve (AUC) using the trapezoid rule. These AUCs are analyzed by 2-way ANOVA using a log transformation to equalize variance across groups. The two factors are the dose of 4-[4-[4-(4-fluoro-3-trifluoromethyl-phenyl)-1-methyl-1H-imidazol-2-yl]-piperidin-1-yl]-1H-pyrazolo[3,4-d]pyrimidine and the dose of erlotinib hydrochloride. The interaction effect between the factors is used to test for departure from additivity. (An Introduction to Statistical Methods and Data Analysis, R. Lyman Ott, 1993, Duxbury Press, Belmont, Calif.)
The results of this study are shown in the table below. n (the number of mice) is 9 for all the data, except for the data from day 17 onwards in the vehicle group and the data from day 38 onwards in the erlotinib hydrochloride group when it is 8. The data in the column headed Signif. indicates whether the difference relative to the vehicle group is statistically significant: NS=Not Significant (p>0.05); *=0.01<p≦0.05; **=0.001<p≦0.01; ***=p≦0.001.

SMILES	pairwise comparison of log tumor volume AUC with the combination group	statistical difference (p) of log tumor volume AUC from the vehicle	Tumor volume Mean (Day 7)	Signif. (difference relative to vehicle group) (Day 7)	Tumor volume Mean (Day 9)	Signif. (difference relative to vehicle group) (Day 9)	Tumor volume Mean (Day 14)	Signif. (difference relative to vehicle group) (Day 14)	Tumor volume Mean (Day 17)	Signif. (difference relative to vehicle group) (Day 17)	Tumor volume Mean (Day 21)	Signif. (difference relative to vehicle group) (Day 21)	Tumor volume Mean (Day 24)	Signif. (difference relative to vehicle group) (Day 24)	Tumor volume Mean (Day 28)	Signif. (difference relative to vehicle group) (Day 28)	Tumor volume Mean (Day 31)	Signif. (difference relative to vehicle group) (Day 31)	Tumor volume Mean (Day 35)	Signif. (difference relative to vehicle group) (Day 35)	other results
C#Cc1cccc(Nc2ncnc3cc(OCCOC)c(OCCOC)cc23)c1 [Erlotinib Hydrochloride, N-(3-ethynylphenyl)-6,7-bis-(2-methoxyethoxy)-4-quinazolinamine]	significantly different from the combination group	not significantly different from the vehicle	39.5	NS (NS=Not Significant (p>0.05))	51.5	NS (NS=Not Significant (p>0.05))	61.8	NS (NS=Not Significant (p>0.05))	74.8	NS (NS=Not Significant (p>0.05))	91.1	NS (NS=Not Significant (p>0.05))	101.6	NS (NS=Not Significant (p>0.05))	139.9	NS (NS=Not Significant (p>0.05))	141.8	** (**=0.001<p≦0.01)	196.7	** (**=0.001<p≦0.01)	Tumor volume Mean (Day 38): 259.4; Signif. (difference relative to vehicle group) (Day 38): * (*=0.01<p≦0.05); Tumor volume Mean (Day 42): 260.1; Signif. (difference relative to vehicle group) (Day 42): ** (**=0.001<p≦0.01); Tumor volume Mean (Day 44): 373.8; Signif. (difference relative to vehicle group) (Day 44): * (*=0.01<p≦0.05); log tumor volume AUC: 3.76
Cn1cc(-c2ccc(F)c(C(F)(F)F)c2)nc1C1CCN(c2ncnc3[nH]ncc23)CC1 [p70 S6 Kinase Inhibitor, 4-[4-[4-(4-fluoro-3-trifluoromethyl-phenyl)-1-methyl-1H-imidazol-2-yl]-piperidin-1-yl]-1H-pyrazolo[3,4-d]pyrimidine]	significantly different from the combination group	not significantly different from the vehicle	33.8	NS (NS=Not Significant (p>0.05))	51.9	NS (NS=Not Significant (p>0.05))	56.2	NS (NS=Not Significant (p>0.05))	75.9	NS (NS=Not Significant (p>0.05))	94.1	NS (NS=Not Significant (p>0.05))	113.5	NS (NS=Not Significant (p>0.05))	196.6	NS (NS=Not Significant (p>0.05))	231.3	NS (NS=Not Significant (p>0.05))	302.4	NS (NS=Not Significant (p>0.05))	Tumor volume Mean (Day 38): 353.3; Signif. (difference relative to vehicle group) (Day 38): NS (NS=Not Significant (p>0.05)); Tumor volume Mean (Day 42): 425.5; Signif. (difference relative to vehicle group) (Day 42): NS (NS=Not Significant (p>0.05)); Tumor volume Mean (Day 44): 530.9; Signif. (difference relative to vehicle group) (Day 44): NS (NS=Not Significant (p>0.05)); log tumor volume AUC: 3.85
